Data on one compound can be found in US8426448B2, “1,5-diphenyl-pyrrolidin-2-one compounds as CB-1 ligands” (Eli Lilly and Company, priority 2008, dated 2013).

Counter-ions that a name gives are not always drawn.

One data set has as its target T1, rCB-1 (Rattus norvegicus, UniProt P20272).
T1 construct: purchased Applied Cell Sciences, Rockville, Md; host or cells: CHO cell membranes
Nature of the data set: rCB1-CHO antagonist mode SPA GTP-γ-35S binding assay. The data set is classed as biochemical. The following applies: antagonist mode vs methanandamide; read-out: rCB-1 SPA GTPγS CHO Membrane Antagonist Kb. How it is done:
(§1) Compounds of the present invention may be tested for functional activity at the CB-1 and CB-2 receptors in both agonist and antagonist modes using SPA (Scintillation Proximity Assay) based GTP-γ-^35S binding assays. All assay components are prepared in assay buffer (20 mM HEPES, 100 mM NaCl, 5 mM MgCl2, pH 7.4) at room temperature. Semi-log dilutions of test compound are prepared in assay buffer containing BSA (0.125% final conc.) for the agonist mode assays. For the antagonist mode assays, test compounds are prepared in the same manner but also include an 80% efficacious dose of a full agonist (methanandamide). GTP-γ^35S binding for the antagonist assay may be measured in a 96 well format using a modification of an antibody capture technique previously described. (DeLapp, N W, et al. (1999) J Pharmacol Exp Ther 289:946-955.) The CB-2 receptor agonist activity may be measured using a similar method using hCB2-Sf9 membranes. The CB-1 receptor agonist activity may be measured using a whole membrane capture technique using hCB1-CHO membranes. All incubations are done at room temperature.
(§2) hCB1-CHO or rCB1-CHO membranes (Applied Cell Sciences, Rockville, Md.) and GDP (1 μM final) are added to ice cold assay buffer and homogenized. […] Plates are then centrifuged at 700×g for 10 min. and the radioactivity counted.
(§3) Data are analyzed as follows: Background is subtracted from all wells. […] Percent antagonist inhibition is calculated by first normalizing the data to the signal generated by a saturating concentration of the full agonist (methanandamide). Then the data are analyzed using a 4-parameter logistic reduced fit (Activity Base™ and XLFit3™ from IDBS, Emeryville, Calif.). Kb values are determined using a modification of the Cheng-Prusoff relationship: Kb=IC50/(1+[agonist]/EC50), where “IC50” is determined from a four parameter fit of displacement curves, “[agonist]” is the agonist challenge concentration (nM), and “EC50” is determined from a four parameter fit of a full agonist concentration response curve (Cheng and Prusoff 1973). […]
(GTPγS resists hydrolysis and so accumulates on activated G proteins.)

Data set [1] deals with T2, hCB-2 (Homo sapiens, UniProt P34972).
T2 construct: purchased Perkin Elmer, Boston, Mass; host or cells: Sf9 cell membranes
As to the kind of experiment: hCB2-Sf9 antagonist mode SPA GTP-γ-35S binding assay. The following applies: antagonist mode vs methanandamide; read-out: hCB-2 SPA GTPγS Sf9 Membrane Antagonist Kb. Format: biochemical. As to the method: (§4) Compounds of the present invention may be tested for functional activity at the CB-1 and CB-2 receptors in both agonist and antagonist modes using SPA (Scintillation Proximity Assay) based GTP-γ-^35S binding assays. All assay components are prepared in assay buffer (20 mM HEPES, 100 mM NaCl, 5 mM MgCl2, pH 7.4) at room temperature. Semi-log dilutions of test compound are prepared in assay buffer containing BSA (0.125% final conc.) for the agonist mode assays. For the antagonist mode assays, test compounds are prepared in the same manner but also include an 80% efficacious dose of a full agonist (methanandamide). GTP-γ^35S binding for the antagonist assay may be measured in a 96 well format using a modification of an antibody capture technique previously described. (DeLapp, N W, et al. (1999) J Pharmacol Exp Ther 289:946-955.) The CB-2 receptor agonist activity may be measured using a similar method using hCB2-Sf9 membranes. The CB-1 receptor agonist activity may be measured using a whole membrane capture technique using hCB1-CHO membranes. All incubations are done at room temperature. […]
(§5) Data are analyzed as follows: Background is subtracted from all wells. […] Percent antagonist inhibition is calculated by first normalizing the data to the signal generated by a saturating concentration of the full agonist (methanandamide). Then the data are analyzed using a 4-parameter logistic reduced fit (Activity Base™ and XLFit3™ from IDBS, Emeryville, Calif.). Kb values are determined using a modification of the Cheng-Prusoff relationship: Kb=IC50/(1+[agonist]/EC50), where “IC50” is determined from a four parameter fit of displacement curves, “[agonist]” is the agonist challenge concentration (nM), and “EC50” is determined from a four parameter fit of a full agonist concentration response curve (Cheng and Prusoff 1973). Mean Kb values are calculated as a mean of at least three independent determinations±standard error of the mean (SEM). […]

In data set [2] the target is T2, hCB-2. As to the kind of experiment: hCB2-Sf9 agonist mode SPA GTP-γ-35S binding assay. The data set is classed as biochemical. As to conditions: read-out: hCB-2 SPA GTPγS Sf9 Membrane Agonist Relative EC50. As to the method: as §4
Data are analyzed as follows: Background is subtracted from all wells. […] Percent antagonist inhibition is calculated by first normalizing the data to the signal generated by a saturating concentration of the full agonist (methanandamide). […]

The next data set has as its system CYP3A. Nature of the data set: Human CYP fingerprinting, ketoconazole inhibition. As to conditions: 4 μM, human liver microsomes, 30 min, 10 μM ketoconazole. Format: in vitro ADME. As to the method: (§6) CYP fingerprinting is well established technique and is used as an indication of potential risk of drug-drug interactions in the pharmaceutical sciences. Compounds of the present invention may be assayed by well known methods, essentially as follows: Compounds are incubated at 37° C. at a final concentration of 4 μM with pooled, mixed gender, human liver microsomes and 1 mM NADPH (Nicotine Adenine Dinucleotide Phosphate) (final conc.) for 0 and 30 min. without any CYP inhibitor and with each CYP inhibitor in separate incubations for 30 min. Each inhibitor is specific for an individual cytochrome P450. The specific inhibitors used for CYPs 2C9, 2D6 and 3A were sulfaphenazole, quinidine and ketoconazole, respectively. Ketoconazole (CYP3A) is made up at 25 mM in DMSO and then diluted in buffer to a final concentration of 10 μM. Quinidine (CYP2D6) is made up at 5 mM in 50/50 acetonitrile/water and then diluted in buffer to a final concentration of 10 μM. Sulfaphenazole (CYP2C9) is made up at 100 mM in DMSO and then diluted in buffer to a final concentration of 5 μM. Samples are analyzed by LC-MS in positive or negative electrospray mode using a Waters Acquity Ultra Performance LC coupled to a MicroMass Q-T of-2 mass spectrometer.
(§7) Data are analyzed using MetaboLynx™ version 4.1. […]

In another data set the target is T3, CYP2D6 (Homo sapiens, UniProt P10635).
T3 construct: pooled, mixed gender, human liver microsomes; from tissue; host or cells: pooled, mixed gender human liver microsomes
As to the kind of experiment: Human CYP fingerprinting, quinidine inhibition. The data set is classed as in vitro ADME. As to conditions: 4 μM, human liver microsomes, 30 min, 10 μM quinidine. As to the method:
as §6, §7
Background: Microsomes from liver hold many membrane-bound enzymes, among them those of drug oxidation.

The next data set has as its target T4, CYP2C9 (Homo sapiens, UniProt P11712).
T4 construct: pooled, mixed gender, human liver microsomes; from tissue; host or cells: pooled, mixed gender human liver microsomes
Nature of the data set: Human CYP fingerprinting, sulfaphenazole inhibition. The data set is classed as in vitro ADME. As to conditions: 4 μM, human liver microsomes, 30 min, 5 μM sulfaphenazole. As to the method: as §6, §7

In data set [3] the target is T5, hCB-1 (Homo sapiens, UniProt P21554). As to the kind of experiment: hCB1-Sf9 antagonist mode SPA GTP-γ-35S binding assay. The data set is classed as biochemical. Details: purchased Applied Cell Sciences, Rockville, Md. As to conditions: Sf9 membrane 22.7 μg; antagonist mode vs methanandamide; read-out: hCB-1 SPA GTPγS Sf9 Membrane 22.7 μg Antagonist Kb. How it is done: as §4, §5

The target of data set [4] is T5, hCB-1. Nature of the data set: hCB1-CHO antagonist mode SPA GTP-γ-35S binding assay. Format: biochemical. Details: purchased Applied Cell Sciences, Rockville, Md; host or cells: CHO cell membranes. As to conditions: antagonist mode vs methanandamide; read-out: hCB-1 SPA GTPγS CHO Membrane Antagonist Kb. How it is done:
as §1, §2, §3

In data set [5] the target is T5, hCB-1. Nature of the data set: hCB1-CHO agonist mode SPA GTP-γ-35S binding assay. Format: biochemical. Details: purchased Applied Cell Sciences, Rockville, Md; host or cells: CHO cell membranes. As to the method: as §1
hCB1-CHO membrane, GDP (1 μM final conc.), and saponin (10 μg/mL final conc., Sigma, St Louis, Mo.) are combined and prepared on ice as for the antagonist assays, above. Diluted test compounds, GTP-γ-^35S ([…] final conc.) and membranes are combined in the assay plate and incubated for 30 min. Then 1 mg/well Wheatgerm Agglutinin SPA beads (GE Healthcare, Piscataway, N.J.) are added, plates are sealed and vortexed and incubate for 1 hr. before spinning and counting in the same fashion as for the antagonist assays, above.
Data are analyzed as follows: Background is subtracted from all wells. Percent agonist efficacy is determine by normalizing agonist/inverse agonist dose response data to the response obtained for a full agonist (methanandamide). Percent antagonist inhibition is calculated by first normalizing the data to the signal generated by a saturating concentration of the full agonist (methanandamide). Then the data are analyzed using a 4-parameter logistic reduced fit (Activity Base™ and XLFit3™ from IDBS, Emeryville, Calif.). Kb values are determined using a modification of the Cheng-Prusoff relationship: Kb=IC50/(1+[agonist]/EC50), where “IC50” is determined from a four parameter fit of displacement curves, “[agonist]” is the agonist challenge concentration (nM), and “EC50” is determined from a four parameter fit of a full agonist concentration response curve (Cheng and Prusoff 1973). Mean Kb values are calculated as a mean of at least three independent determinations±standard error of the mean (SEM). […]

A word on the Kb: it is the affinity of an antagonist, worked out from how it opposes an agonist. Broadly, the EC50 is the concentration at which the effect is half-maximal.

T5 sequence (P21554 whole entry): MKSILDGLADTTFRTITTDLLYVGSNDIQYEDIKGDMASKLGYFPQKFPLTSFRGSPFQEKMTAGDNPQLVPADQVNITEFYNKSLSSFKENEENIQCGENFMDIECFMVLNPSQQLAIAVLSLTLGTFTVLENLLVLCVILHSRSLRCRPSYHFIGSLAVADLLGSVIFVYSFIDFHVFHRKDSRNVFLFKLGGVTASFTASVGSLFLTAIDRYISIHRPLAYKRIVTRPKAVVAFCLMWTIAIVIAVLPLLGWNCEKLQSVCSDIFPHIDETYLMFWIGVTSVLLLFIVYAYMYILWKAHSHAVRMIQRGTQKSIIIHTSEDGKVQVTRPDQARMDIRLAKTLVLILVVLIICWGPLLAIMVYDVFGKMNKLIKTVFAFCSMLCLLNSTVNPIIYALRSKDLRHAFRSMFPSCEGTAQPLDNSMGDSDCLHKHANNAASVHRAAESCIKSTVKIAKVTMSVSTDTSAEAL
T2 sequence (P34972 whole entry): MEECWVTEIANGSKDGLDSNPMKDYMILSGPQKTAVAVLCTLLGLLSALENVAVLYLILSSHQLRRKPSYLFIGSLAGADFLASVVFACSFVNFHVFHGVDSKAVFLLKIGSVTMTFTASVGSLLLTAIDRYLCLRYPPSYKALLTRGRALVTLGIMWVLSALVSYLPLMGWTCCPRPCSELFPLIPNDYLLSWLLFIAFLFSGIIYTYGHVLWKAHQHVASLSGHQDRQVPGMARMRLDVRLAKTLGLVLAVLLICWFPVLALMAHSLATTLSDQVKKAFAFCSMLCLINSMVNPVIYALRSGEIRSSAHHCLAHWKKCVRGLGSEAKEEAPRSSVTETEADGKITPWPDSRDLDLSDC
T4 sequence (P11712 whole entry): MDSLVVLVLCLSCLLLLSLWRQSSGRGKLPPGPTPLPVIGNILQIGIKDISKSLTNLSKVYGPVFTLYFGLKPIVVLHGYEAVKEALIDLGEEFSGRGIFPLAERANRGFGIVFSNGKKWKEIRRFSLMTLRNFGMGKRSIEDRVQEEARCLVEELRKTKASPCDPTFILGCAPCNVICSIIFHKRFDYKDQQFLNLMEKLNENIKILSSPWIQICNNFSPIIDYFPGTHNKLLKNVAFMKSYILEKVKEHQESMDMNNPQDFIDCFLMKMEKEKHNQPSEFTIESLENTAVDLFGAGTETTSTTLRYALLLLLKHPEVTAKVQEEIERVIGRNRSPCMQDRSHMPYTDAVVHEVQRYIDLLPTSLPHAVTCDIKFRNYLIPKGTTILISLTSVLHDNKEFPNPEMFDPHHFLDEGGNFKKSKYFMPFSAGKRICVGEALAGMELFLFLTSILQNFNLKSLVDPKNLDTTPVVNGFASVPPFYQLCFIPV
T3 sequence (P10635 whole entry): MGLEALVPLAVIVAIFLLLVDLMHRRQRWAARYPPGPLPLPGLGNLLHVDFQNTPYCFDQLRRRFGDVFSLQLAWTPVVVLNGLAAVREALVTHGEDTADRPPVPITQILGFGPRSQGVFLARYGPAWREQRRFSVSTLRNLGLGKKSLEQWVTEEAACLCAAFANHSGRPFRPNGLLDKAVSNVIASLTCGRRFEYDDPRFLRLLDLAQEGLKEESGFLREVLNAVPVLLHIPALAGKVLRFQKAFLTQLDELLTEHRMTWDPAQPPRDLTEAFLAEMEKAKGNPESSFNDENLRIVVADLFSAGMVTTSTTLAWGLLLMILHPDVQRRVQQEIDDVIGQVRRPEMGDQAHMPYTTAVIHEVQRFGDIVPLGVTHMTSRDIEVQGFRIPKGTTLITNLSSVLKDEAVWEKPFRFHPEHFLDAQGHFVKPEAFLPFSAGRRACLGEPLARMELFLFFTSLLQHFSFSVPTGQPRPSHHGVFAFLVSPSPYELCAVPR
T1 sequence (P20272 whole entry): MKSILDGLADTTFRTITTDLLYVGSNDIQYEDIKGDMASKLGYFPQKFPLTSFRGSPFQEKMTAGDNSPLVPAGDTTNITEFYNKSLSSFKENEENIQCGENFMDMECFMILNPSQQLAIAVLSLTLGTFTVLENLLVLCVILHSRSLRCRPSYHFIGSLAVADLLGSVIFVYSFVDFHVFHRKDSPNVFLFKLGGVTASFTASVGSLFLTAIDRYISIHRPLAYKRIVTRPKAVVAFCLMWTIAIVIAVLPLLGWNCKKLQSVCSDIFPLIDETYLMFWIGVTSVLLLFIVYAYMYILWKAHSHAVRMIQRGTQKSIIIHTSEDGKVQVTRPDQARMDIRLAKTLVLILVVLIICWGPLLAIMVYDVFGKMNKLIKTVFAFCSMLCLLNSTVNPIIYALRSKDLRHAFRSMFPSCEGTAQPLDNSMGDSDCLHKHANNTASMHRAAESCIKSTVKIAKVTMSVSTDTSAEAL

As for `CC(C)(N[C@@H]1C[C@H](c2cccc(OC(F)(F)F)c2)N(c2ccc(C#N)cc2)C1=O)c1cccc(C(F)(F)F)n1` [27 Tosylate salt, 4-[(3R,5R)-3-[1-methyl-1-(6-trifluoromethyl-pyridin-2-yl)-ethylamino]-2-oxo-5-(3-trifluoromethoxy-phenyl)-pyrrolidin-1-yl]-benzonitrile tosylate], the Kb was 0.238 nM on rCB-1, over 18.4 µM at hCB-2 [1], 1.77 nM at hCB-1 [3] and 0.179 nM on hCB-1 [4]. Also, the EC50 at hCB-2 [2] was over 100 µM; on hCB-1 [5] (inverse agonism, read-out: hCB-1 SPA GTPγS CHO Membrane Agonist Relative EC50 inverse), 0.943 nM. The “Risk of Drug Drug Interaction (DDI) CYP3A” value in the data set with CYP3A is reported as “Low”. The “Risk of Drug Drug Interaction (DDI) CYP2D6” value at CYP2D6 is “Low”. The “Risk of Drug Drug Interaction (DDI) CYP2C9” value at CYP2C9 is “low (a reduction in metabolite peak area of less than 30% (relative to the uninhibited control incubation) receives a designation of low risk of Drug Drug Interaction (DDI))”. Also, at hCB-1 [5] (normalized to full agonist methanandamide), the “hCB-1 SPA GTPγS CHO Membrane Agonist % Relative Efficacy” value is −97.3%.
